Assays:
in vivo = assay: in vivo; design: species or system SD rats; conditions: SD, rat, po, 3 mg/kg
Protocol: Rat Pharmacokinetic (PK) Study (Concentration of Compound in Plasma after Oral Administration)
Seven to eight week old SD rats (weighing 180 to 250 g) were orally administered with a suspension of the compound in 0.5 W/V % methylcellulose 400 solution. Under anesthesia, the blood was collected from the jugular vein in EDTA tubes at 0.25, 0.5, 1, 2, 4, 6, 8 and 24 hours after the administration of the compound. The blood was centrifuged at 4° C. and 6000 g for 3 minutes to give plasma. Acetonitrile was added to the plasma, and the mixture was stirred with a shaker at 750 rpm for 3 minutes and was deproteinized by centrifugation at 3700 rpm for 2 minutes. Thus, the obtained sample was analyzed by LC/MS under the following conditions.
The concentration of the compound in the plasma at each blood sampling time was determined by an internal standard method, and AUC all (Area Under Curve) was calculated by a trapezoidal method.
The following LC and MS systems were used for measurement.
LC: CBM 30 series manufactured by Shimadzu Corporation
Column: Phenomenex Kinetex C18 (50×2.1 mm, 2.6 μm)
Column temperature: 40° C.
Mobile phase A: 0.1% aqueous formic acid solution, mobile phase B: 0.1% formic acid,
50% acetonitrile/methanol mixture
MS: 3200 manufactured by SCIEX

[1] = test system: Human normal glomerular microvascular endothelial cells; type: cell-based; conditions: 2 days, 100 nM
Protocol: The Cytotoxicity Inhibition Test in Human Normal Glomerular Microvascular Endothelial Cells
(§1) Human normal glomerular microvascular endothelial cells were plated at 6000 cells/well in a collagen-coated 96-well culture plate. After one day of culture, the medium at each well was completely removed by aspiration and replaced with 50 μL of the compound solution diluted with the basal medium. The basal medium containing 0.1% DMSO was added to control wells. Following, the plate was incubated in CO2 incubator for 30 minutes. Fifty microliter of 2 mM methylamine diluted with the basal medium was added (final concentration 1 mM) to each negative control well (0% inhibition) as well as the compound-containing well, and 50 μL of the basal medium was added to each positive control well (100% inhibition). The plate was incubated in CO2 incubator for 2 days. Ten microliter of CCK-8 was added to each well and the mixtures were incubated in a plate incubator at 37° C. for approximately 2 hours after stirring with a plate shaker. The absorbance of the mixtures at 450 nm was measured with a multiplate reader. The cytotoxicity inhibition ratio of the compound was calculated from the following equation. Inhibition ratio={[Average absorbance of the compound-containing wells]−[Average absorbance of negative control wells]}/{[Average absorbance of positive control wells]−[Average absorbance of negative control wells]}×100

[2] = test system: Human normal hepatic sinusoid-like microvascular endothelial cells; type: cell-based; conditions: 2 days, 300 nM
Protocol: The Cytotoxicity Inhibition Test in Human Normal Hepatic Sinusoid-Like Microvascular Endothelial Cells
as §1, with “hepatic sinusoid-like” for “glomerular”

Rat Plasma VAP-1 = molecular target: T1, Rat Plasma VAP-1 (Rattus norvegicus, UniProt O08590); assay: (Ex vivo) rat plasma VAP-1 inhibition test after oral administration of the compound; type: in vivo; conditions: 3 hours after oral administration, SD male rats, read-out: inhibition ratio (plasma VAP-1, ex vivo)
T1 construct: from tissue; host or cells: plasma of SD male rats (7-12 weeks old) after oral dosing
T1 sequence (O08590 28-763 limits assumed): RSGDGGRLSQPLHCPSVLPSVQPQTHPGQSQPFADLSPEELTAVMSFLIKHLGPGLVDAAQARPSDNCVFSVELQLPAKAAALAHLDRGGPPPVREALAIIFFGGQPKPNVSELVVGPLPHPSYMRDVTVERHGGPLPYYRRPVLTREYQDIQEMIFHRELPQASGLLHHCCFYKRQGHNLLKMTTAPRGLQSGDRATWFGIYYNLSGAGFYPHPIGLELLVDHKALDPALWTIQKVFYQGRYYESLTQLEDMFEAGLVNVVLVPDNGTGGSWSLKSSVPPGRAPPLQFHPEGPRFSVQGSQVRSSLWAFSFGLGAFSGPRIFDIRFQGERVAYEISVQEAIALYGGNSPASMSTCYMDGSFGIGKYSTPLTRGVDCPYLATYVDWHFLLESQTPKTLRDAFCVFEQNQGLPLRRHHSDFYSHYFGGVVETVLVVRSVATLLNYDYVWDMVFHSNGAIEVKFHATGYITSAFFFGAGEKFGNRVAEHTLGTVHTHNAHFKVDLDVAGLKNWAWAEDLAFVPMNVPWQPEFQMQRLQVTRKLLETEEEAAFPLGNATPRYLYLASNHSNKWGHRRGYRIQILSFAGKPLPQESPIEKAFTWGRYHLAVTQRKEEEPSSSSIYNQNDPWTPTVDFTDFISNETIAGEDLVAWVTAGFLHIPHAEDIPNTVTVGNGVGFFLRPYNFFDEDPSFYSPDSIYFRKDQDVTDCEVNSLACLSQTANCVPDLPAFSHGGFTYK
In short: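 Male SD rats, 7–12 weeks, non-fasted, dosed orally at 0.3–10 mg/kg; jugular blood taken predose and 3, 8 and 24 h after dosing. Plasma incubated with 2.5 μM 14C-benzylamine for 3 h at 37 °C; extracted product counted by scintillation. Inhibition expressed relative to each animal's predose plasma activity.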

Human VAP-1 enzyme = molecular target: T2, Human VAP-1 enzyme (Homo sapiens, UniProt Q16853); assay: Human VAP-1 enzyme inhibition test; type: biochemical; conditions: 1 h; compound 30 nM; 14C-benzylamine 100 μM; read-out: inhibition ratio (human VAP-1 enzyme)
T2 construct: purchased R&D Systems, Inc
T2 sequence (Q16853 1-763): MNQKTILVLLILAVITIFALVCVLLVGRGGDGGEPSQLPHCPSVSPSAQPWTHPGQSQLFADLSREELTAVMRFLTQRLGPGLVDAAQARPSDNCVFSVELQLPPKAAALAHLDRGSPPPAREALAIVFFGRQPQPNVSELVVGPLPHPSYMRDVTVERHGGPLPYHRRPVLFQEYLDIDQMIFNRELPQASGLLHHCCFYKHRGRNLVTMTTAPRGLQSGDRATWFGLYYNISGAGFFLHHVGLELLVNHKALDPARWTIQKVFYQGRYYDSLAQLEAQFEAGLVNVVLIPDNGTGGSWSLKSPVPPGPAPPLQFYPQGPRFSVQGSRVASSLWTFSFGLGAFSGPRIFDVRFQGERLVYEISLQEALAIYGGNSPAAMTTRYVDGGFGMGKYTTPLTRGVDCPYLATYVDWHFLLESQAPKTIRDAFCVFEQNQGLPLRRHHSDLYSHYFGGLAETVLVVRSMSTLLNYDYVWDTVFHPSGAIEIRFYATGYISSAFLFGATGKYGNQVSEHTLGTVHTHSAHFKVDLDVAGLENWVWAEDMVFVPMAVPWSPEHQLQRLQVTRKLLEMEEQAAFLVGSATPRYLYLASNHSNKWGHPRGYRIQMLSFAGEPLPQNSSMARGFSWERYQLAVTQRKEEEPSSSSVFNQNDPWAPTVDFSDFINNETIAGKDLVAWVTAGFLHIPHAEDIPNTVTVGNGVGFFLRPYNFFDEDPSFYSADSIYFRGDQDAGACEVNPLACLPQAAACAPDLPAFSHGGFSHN
In short: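 Activity measured as radioactive oxidation product of 14C-benzylamine (100 μM final), extracted with toluene/ethyl acetate after citric acid stop and scintillation-counted. Enzyme (recombinant human VAP-1) first exposed to compound 20 min at room temperature, reaction then 1 h at 37 °C. Percent inhibition versus DMSO control.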

AUC (in vivo) [ng·h/mL] | inhibition in vivo at 0.3 mg/kg (Rat Plasma VAP-1) [%] | inhibition at 0.03 µM (Human VAP-1 enzyme) [%] | Compound | cytotoxicity inhibition ratio [1] [%] | cytotoxicity inhibition ratio [2] [%]
≥ 1000 | ≥ 50 | – | CON=C1CN(c2ncc(-c3cccc(COC(=O)NC(=N)N)c3F)cn2)C1 [Example 1, 2-Fluoro-3-{2-[3-(methoxyimino)azetidin-1-yl]pyrimidin-5-yl}benzyl carbamimidoylcarbamate] | ≥ 50 | ≥ 50
– | ≥ 50 | ≥ 50 | N=C(N)NC(=O)OCc1cccc(-c2cnc(N3CC(=NOC4COC4)C3)nc2)c1F [Example 144, 2-Fluoro-3-(2-{3-[(oxetan-3-yloxy)imino]azetidin-1-yl}pyrimidin-5-yl)benzyl carbamimidoylcarbamate] | ≥ 50 | ≥ 50
